Test system: AKT phosphorylation in IPF human lung fibroblasts
Assay: AKT phosphorylation of human lung fibroblasts
Format: cell-based
Details: IPF cells; CL27c 10 µM
Protocol: Human lung fibroblast cell culture
Two separate human lung fibroblast cell lines isolated from IPF patients were used: LL97a derived from a person (ATCC, Manassas, USA) and DHLF-IPF (#CC-7231, Lonza, Switzerland). Control cell lines were CCD-16Lu, obtained from a person that died of astrocytoma –a disease unrelated to IPF - (ATCC) and NHLF (#CC-2512; Lonza). LL97a and CCD-16Lu cells were cultured in Dulbecco's modified Eagles medium (DMEM, Sigma Aldrich, Dorset, UK). Media was supplemented with penicillin/streptomycin (100 U/ml, Thermo-Fischer, Germany) and 10% fetal bovine serum (FBS, Thermo-Fischer, Germany). Cells from Lonza were cultured in the FGMTM (#CC-3132, Lonza). […]
Caliper based assay, the reaction was terminated by addition of EDTA buffer. Substrate and product were separated and quantified electrophoretically using the microfluidic-based and the assay plate was read on Caliper LabChip 3000 Drug Discovery System from Caliper Life Sciences (Walthan, MA, USA). ADP Glo was another method of detection used for some kinase assays where data was obtained by quantifying the intensity of luminescence. For ADP Glo based assay, the reaction was terminated by applying the Promega ADP Glo Kinase Assay kit and the assay plate was read on a LJL Biosystems Analyst HT. […]

`COC(=O)c1cccc(Cn2cc(-c3cccc4c(=O)cc(N5CCOCC5)[nH]c34)nn2)c1` [CL27c] was tested, and the “serum-induced AKT phosphorylation” value was “effectively blunted serum-induced AKT phosphorylation”.
